According to publication PMC9411606, “Control cell migration by engineering integrin ligand assembly” (Nature Communications, 2022):

How the values were obtained:
[1] = tested on: HuH-7 cells; assay: MTT assay, HuH-7 cell viability; format: cell-based, human; settings: HuH-7, 10-200 µM, 24, 48, 72 hr
Protocol: Huh-7 cells were seeded in 96-well plates at a density of 5 × 10^3 cells/ well. The cells were allowed to adhere by incubating at 37 °C with 5% CO2 for 12 hr. 100 μL of Cultured medium containing 10% FBS and the desired concentration of peptide replaced to each well and the cells were then incubated with the peptide solution for another 24, 48, or 72 hr. After the desired time of incubation, 10 μL of MTT (12 mM, Invitrogen) solution at a concentration of 5 mg/mL was added to each well and incubated at 37 °C for another 4 hr. The reduction reaction was terminated by adding 100 μL of 10% of SDS solution (in Milli-Q) and incubated for 12 hr to dissolve the formazan crystals formed in the cells. A Nivo multimode plate reader (PerkinElmer) was used to measure the optical density at the 570 nm wavelength of each well. All experiments were conducted in triplicate, and the results were calculated as mean ± standard deviation and presented as cell viability.

[2] = tested on: integrin knockdown HuH-7 cells; assay: Cell adhesion assay, integrin knockdown HuH-7; format: cell-based, human; settings: coated with 100 µM FFFIKLLI, n = 30
Protocol: (§1) Integrin β1 shRNA plasmid (#sc-29375-SH), Integrin α3 shRNA plasmid (#sc-35684-SH), Integrin α6 shRNA plasmid (#sc-43129-SH), and control shRNA plasmid-A (#sc-108060) were purchased from Santa Cruz Biotechnology for knockdown of the target integrins. The knockdown efficiency was evaluated by western blotting.
(§2) The 96-well microplates wells were coated with peptide assemblies (the concentration of FFFIKLLI was kept at 100 μM constantly) for 12 hr at 37 °C before blocked with the Blocking Buffer (2% BSA, 1 mM CaCI2 and 1 mM MnCI2 in PBS) for 1 hr at 37 °C. Cells were collected from culture dishes and suspended in the Blocking Buffer containing anti-laminin-5 (P3H9-2, MAB1947, Chemicon, 5 μg/ml), anti-fibronectin (IST-9, ab6328, Abcam, 20 μg/ml) or IgG isotype control (20 μg/ml, Abcam) before immediately seeded to the coated well (20,000 cells/well) and allowed to incubate at 37 °C for 1 h. The wells were washed for three times with the Blocking Buffer and the phase-contrast images were captured by IncucyteS3 (Essen Bioscience) with a 10× objective.

[3] = tested on: HuH-7 cells; assay: Cell adhesion assay, HuH-7; format: cell-based, human; settings: FFFIKLLI pre-coated dishes
Protocol: as §2

[4] = tested on: HuH-7 cells; assay: Morphodynamics analysis (edge velocity); format: cell-based, human; settings: for Retraction velocity / Protrusion velocity: median
Protocol: The whole-cell morphodynamics maps were generated using the open-source ImageJ plugin “ADAPT”[46]. The analyses were done on the maximum intensity projection of 5.5-µm stack images of mRuby-Lifeact-7 transfected HuH-7 cells pretreated with peptides for 12 hr. A spinning-disk confocal (Olympus SD-OSR) equipped with the camera Prime BSI sCMOS camera and a 100×/1.35 Silicon UPlanSApo objective was used to obtain the images every 2 min. All velocity values are directly measured using the plugin and plotted using GraphPad Prism. Briefly, the fluorescent images were Gaussian filtered to suppress noise and then a gray-level threshold was applied to create a binary image. The cell boundary was taken as pixels bordering segmented regions and the resulting segmentation is used as the seed for the region-growing algorithm in the next frame. […] The change in gray level was used to calculate the membrane velocity at each point and for a better visual representation, the resulting velocity map images (around 10000 × 100 pixels) were stretched to optimize visualization. […]

[5] = tested on: integrin knockdown HuH-7 cells; assay: Wound healing assay, integrin knockdown HuH-7; format: cell-based, human; settings: 48 hr wound healing, 100 µM, n = 6
Protocol: Healthy cells were seeded in 96-well Image Lock plates (Essen Bioscience, UK). Each well contained 2 ×10^4 to 5 × 10^4 cells in 100 μL of complete cell culture medium. Cell monolayer with approximately 90% confluence formed after 12 hr and cells were next starved in serum-free culture medium for 12 hrs. Homogenous scratch wounds with a width of about 700 μm were made by an Essen BioScienceWound Maker. The detached cells were washed with Dulbecco’s Buffered Saline (DPBS, Gibco) 3 times. Cells were incubated with 100 μL of culture medium containing 0.5 % FBS and desired concentration of each peptide. Wound closure was monitored by an IncucyteS3 (Essen Bioscience) with a 10x objective. Images for each well were acquired every 2 hr to 8 hr for 2 days or until the wounds were closed completely. The wound healing rate was quantified by Incucyte Scratch Wound Analysis Module (Essen Bioscience). The experiments were repeated at least 3 times, and the results were presented as mean ± standard deviation of at least 3 independent experiments.
as §1

[6] = tested on: integrin α3β1; assay: MicroScale Thermophoresis integrin binding; set-up: species or system human; settings: MST, n = 3
Description: The interaction between integrins and peptide ligands in PBS was quantified by a Monolith® NT.115Pico (NanoTemper Technology, Germany) using MO. Control 1.6 software. Recombinant human integrin proteins, including alpha-3/ beta-1, alpha-5/beta-1, and alpha-6/ beta-1, were purchased from R&D Systems (USA). Recombinant integrin proteins were labeled by Monolith^TM Protein Labeling Kit RED-NHS (NanoTemper Technology) following the instruction provided by the manufacturer. The fluorescence-labeled integrin solution was mixed with peptides solution in 15 concentration gradients at a 1:1 ratio. The Monolith^TM NT.115 MST Premium Coated Capillaries (NanoTemper Technology) were applied to draw the mixed solution with the order of declining ligand concentration. Pretests were performed to ensure the protein concentration and fluorescent intensities in each tube were equal. Following that, quantitative binding affinity was measured three times.

[7] = tested on: cells lacking integrin α3β1 expression; assay: Cell adhesion assay, cells lacking integrin α3β1; format: cell-based, human; settings: coated with 100 µM, 1 h at 37 °C, n = 30
Protocol: as §2

[8] = tested on: FAK Y397 phosphorylation in HuH-7 cells; assay: Western blotting FAK / pY397 FAK; format: cell-based, human
[9] = entire periphery, HuH-7, pretreated 12 hr, violin plot
[10] = vin258-transfected HuH-7, 12 hr, n = 10 cells
[11] = relative to Ctrl = 1, 12 hr, representative blot

“FFFIKLLI [assembling ligand: FFF coupled to the N-terminus of IKLLI; self-assembles into nanofilaments]” was tested, and the cytotoxicity [1] was “without inducing cytotoxicity”, the “adherence after knockdown of α3 or β1 subunit” value [2] was “significantly reduced their adherence” and the attached cells ([3]; IgG, n = 30) was 171.2 Counts / mm2. The attached cells ([3]; anti-fibronectin IST-9, n = 30) was 162.2 Counts / mm2, the attached cells ([3]; anti-laminin-5 P3H9-2, n = 30) was 157.4 Counts / mm2 and the “trailing edge retraction and leading-edge protrusion” value ([4]; HuH-7, FFFIKLLI 100 μM, 12 h) was “restricted both trailing edge retraction and leading-edge protrusion”. The Retraction velocity ([4]; Tiam1/Rac1-activated HuH-7, 12 hr, n = 7, 8 cells) was 0.035 µm/min, the Protrusion velocity [4, 9] was 0.0072 µm/min and the Retraction velocity [4, 9] was 0.0076 µm/min. The Protrusion velocity [4, 10] was 0.0086 µm/min, the Retraction velocity [4, 10] was 0.0080 µm/min and the “suppression efficacy after knockdown of α3 or β1 integrin subunit” value [5] was “attenuated the suppression efficacy”. For the same sequence, the “suppression efficacy after knockdown of α6 subunit (attenuated?)” value [5] was “did not”, the integrin-binding affinity ([6]; PBS, integrin 2 nM, in words) was “highest binding affinity” and the integrin selectivity ([6]; integrin α3β1 vs α5β1 and α6β1, integrin 2 nM) was “selectively targeted integrin α3β1”. For the same sequence, the “adherence to FFFIKLLI-coated dishes” value [7] was “washed out”, the “FAK Y397 phosphorylation” value ([8]; HuH-7, 12 hr, n = 9) was “reduction” and the FAK band [8, 11] was 0.87. It also gave a pY397FAK band [8, 11] of 0.34.
